Laboratory results published in patent US7459450B2, “Neuropeptide receptor modulators” (Schering Corporation, priority 2004, dated 2008).

What follows are molecules tested against T1, Human NPY Y1 receptors (Homo sapiens, UniProt P25929) (assay: NPY Receptor Binding Assay). Details: Procedure A compounds, rated A/B/C.
T1 construct: expressed in transfected cells; host or cells: CHO cells (membrane protein)
T1 sequence (P25929 1-384): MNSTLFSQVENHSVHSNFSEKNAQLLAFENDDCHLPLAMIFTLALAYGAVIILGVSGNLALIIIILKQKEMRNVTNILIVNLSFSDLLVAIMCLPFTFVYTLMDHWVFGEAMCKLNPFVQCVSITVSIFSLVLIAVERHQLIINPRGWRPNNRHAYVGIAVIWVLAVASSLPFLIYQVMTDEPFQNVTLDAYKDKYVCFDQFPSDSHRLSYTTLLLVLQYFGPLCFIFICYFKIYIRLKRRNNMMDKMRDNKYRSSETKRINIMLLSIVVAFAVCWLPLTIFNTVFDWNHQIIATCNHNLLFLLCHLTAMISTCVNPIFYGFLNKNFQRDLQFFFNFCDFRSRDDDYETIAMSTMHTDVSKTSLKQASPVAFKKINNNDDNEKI
Method: NPY Receptor Binding Assay
Human NPY Y1 receptors were expressed in CHO cells. Binding assays were performed in 50 mM HEPES, pH 7.2, 2.5 mM CaCl2, 1 mM MgCl2 and 0.1% BSA containing 5-10 μg of membrane protein and 0.1 nM […] in a total volume of 200 μl. Non-specific binding was determined in the presence of 1 μM NPY. The reaction mixtures were incubated for 90 minutes at room temperature then filtered through Millipore MAFC glass fiber filter plates which had been pre-soaked in 0.5% polyethleneimine. The filters were washed with phosphate-buffered saline, and radioactivity was measured in a Packard TopCount scintillation counter.

Ki	Structure (SMILES)
> 10 µM	c1ccc2sc(NCCc3ccc(N(C4=NCCS4)C4=NCCS4)cc3)nc2c1 [Example 14]
1 to 10 µM	CS(=O)(=O)c1ccc2nc(NCCc3ccc(NC4=NCCS4)cc3)sc2c1 [Example 15]
1 to 10 µM	COc1ccc2nc(NCCc3ccc(NC4=NCCS4)cc3)sc2c1 [Example 16]
1 to 10 µM	Cc1ccc2nc(NCCc3ccc(NC4=NCCS4)cc3)sc2c1 [Example 17]
1 to 10 µM	O=[N+]([O-])c1ccc2nc(NCCc3ccc(NC4=NCCS4)cc3)sc2c1 [Example 18]
1 to 10 µM	Clc1ccc2nc(NCCc3ccc(NC4=NCCS4)cc3)sc2c1 [Example 19]
1 to 10 µM	Clc1cc2nc(NCCc3ccc(NC4=NCCS4)cc3)sc2cc1Cl [Example 20]
1 to 10 µM	Fc1ccc2nc(NCCc3ccc(NC4=NCCS4)cc3)sc2c1 [Example 21]
1 to 10 µM	COc1cccc2sc(NCCc3ccc(NC4=NCCS4)cc3)nc12 [Example 22]
1 to 10 µM	Cc1cccc2sc(NCCc3ccc(NC4=NCCS4)cc3)nc12 [Example 23]
> 10 µM	c1ccc(NC2=NCCS2)c(CCNc2nc3ccccc3s2)c1 [Example 24]
> 10 µM	c1cc(CCNc2nc3ccccc3s2)cc(NC2=NCCS2)c1 [Example 25]

Same assay, conditions: Procedure B compounds, rated A/B/C

Ki	Structure (SMILES)
> 10 µM	CCOC(=O)N1CCN=C1Nc1ccc(CCNc2nc3ccccc3s2)cc1 [Example 26]
> 10 µM	CCOC(=O)N1CC(c2ccccc2)N=C1Nc1ccc(CCNc2nc3ccccc3s2)cc1 (stereo not shown) [Example 27]
> 10 µM	CCOC(=O)N1C(Nc2ccc(CCNc3nc4ccccc4s3)cc2)=NC(C)C1c1ccccc1 (stereo not shown) [Example 28]
> 10 µM	CCOC(=O)N1CC2(CCCC2)N=C1Nc1ccc(CCNc2nc3ccccc3s2)cc1 [Example 29]
> 10 µM	O=C(c1ccccc1)N1CC(c2ccccc2)N=C1Nc1ccc(CCNc2nc3ccccc3s2)cc1 (stereo not shown) [Example 30]
> 10 µM	CC1N=C(Nc2ccc(CCNc3nc4ccccc4s3)cc2)N(C(=O)c2ccccc2)C1c1ccccc1 (stereo not shown) [Example 31]
> 10 µM	O=C(c1ccccc1)N1CC2(CCCC2)N=C1Nc1ccc(CCNc2nc3ccccc3s2)cc1 [Example 32]
> 10 µM	CCC1CN(C(=O)c2ccccc2)C(Nc2ccc(CCNc3nc4ccccc4s3)cc2)=N1 (stereo not shown) [Example 33]
> 10 µM	CCOC(=O)N1CC2CCCN2/C1=N\c1ccc(CCNc2nc3ccccc3s2)cc1 (stereo not shown) [Example 34]
> 10 µM	O=C(c1ccccc1)N1CC2CCCN2/C1=N\c1ccc(CCNc2nc3ccccc3s2)cc1 (stereo not shown) [Example 35]

Same assay, conditions: Procedure C compounds, rated A/B/C

Ki	Structure (SMILES)
> 10 µM	CCOC(=O)N1C(=O)CN=C1Nc1ccc(CCNc2nc3ccccc3s2)cc1 [Example 36]
> 10 µM	CCOC(=O)N1C(=O)[C@H](C)N=C1Nc1ccc(CCNc2nc3ccccc3s2)cc1 [Example 37]
> 10 µM	CCOC(=O)N1C(=O)[C@H](CC(=O)O)N=C1Nc1ccc(CCNc2nc3ccccc3s2)cc1 [Example 38]
> 10 µM	CCOC(=O)N1C(=O)[C@H](CC2CCCCC2)N=C1Nc1ccc(CCNc2nc3ccccc3s2)cc1 [Example 39]
> 10 µM	CCOC(=O)N1C(=O)[C@H](CCC(=O)O)N=C1Nc1ccc(CCNc2nc3ccccc3s2)cc1 [Example 40]
> 10 µM	CCOC(=O)N1C(=O)[C@H]([C@@H](C)CC)N=C1Nc1ccc(CCNc2nc3ccccc3s2)cc1 [Example 41]
> 10 µM	O=C(O)C[C@@H]1N=C(Nc2ccc(CCNc3nc4ccccc4s3)cc2)N(C(=O)c2ccccc2)C1=O [Example 49]
> 10 µM	O=C(c1ccccc1)N1C(=O)[C@H](CC2CCCCC2)N=C1Nc1ccc(CCNc2nc3ccccc3s2)cc1 [Example 50]
> 10 µM	O=C(O)CC[C@@H]1N=C(Nc2ccc(CCNc3nc4ccccc4s3)cc2)N(C(=O)c2ccccc2)C1=O [Example 51]
> 10 µM	CC[C@H](C)[C@@H]1N=C(Nc2ccc(CCNc3nc4ccccc4s3)cc2)N(C(=O)c2ccccc2)C1=O [Example 52]
> 10 µM	CC(C)C[C@@H]1N=C(Nc2ccc(CCNc3nc4ccccc4s3)cc2)N(C(=O)c2ccccc2)C1=O [Example 53]
> 10 µM	CSCC[C@@H]1N=C(Nc2ccc(CCNc3nc4ccccc4s3)cc2)N(C(=O)c2ccccc2)C1=O [Example 54]

Same assay, conditions: Procedure E compounds, rated A/B/C

Structure (SMILES)	Ki
CS(=O)(=O)c1ccc2nc(NCCc3ccc(NC4=NCCCS4)cc3)sc2c1 [Example 65]	1 to 10 µM
c1ccc(/N=C2\NCCCS2)c(CCNc2nc3ccccc3s2)c1 [Example 68]	> 10 µM
c1cc(CCNc2nc3ccccc3s2)cc(/N=C2\NCCCS2)c1 [Example 69]	> 10 µM
c1ccc(C2CCS/C(=N/c3ccccc3CCNc3nc4ccccc4s3)N2)cc1 (stereo not shown) [Example 70]	> 10 µM
Clc1cc2nc(NCCc3ccc(N=C4NCCCS4)cc3)sc2cc1Cl [Example 72]	< 1 µM
O=[N+]([O-])c1ccc2nc(NCCc3ccc(/N=C4/NC5(CCCC5)CS4)cc3)sc2c1 [Example 75]	1 to 10 µM
Cc1ccc2nc(NCCc3ccc(/N=C4\SCCN4C)cc3)sc2c1 [Example 86]	> 10 µM
Cc1ccc2nc(NCCc3ccc(/N=C4/N[C@H](CC(C)C)CS4)cc3)sc2c1 [Example 88]	< 1 µM
Cc1ccc2nc(NCCc3ccc(/N=C4\SC[C@@H]5CCCN45)cc3)sc2c1 [Example 89]	> 10 µM
CCCCC1CS/C(=N\c2ccc(CCNc3nc4ccc(C)cc4s3)cc2)N1 (stereo not shown) [Example 92]	1 to 10 µM

Continued, values first:

Ki	Structure (SMILES)
> 10 µM	O=[N+]([O-])c1ccc2nc(NCCc3ccc(N=C4NCCCS4)cc3)sc2c1 [Example 62]
1 to 10 µM	CS(=O)(=O)c1ccc2nc(NCCc3ccc(/N=C4/NC(c5ccccc5)CCS4)cc3)sc2c1 (stereo not shown) [Example 64]
> 10 µM	Clc1cc2nc(NCCc3ccc(/N=C4/NC(c5ccccc5)CCS4)cc3)sc2cc1Cl (stereo not shown) [Example 66]
> 10 µM	O=[N+]([O-])c1ccc2nc(NCCc3ccc(/N=C4/NC(c5ccccc5)CCS4)cc3)sc2c1 (stereo not shown) [Example 67]
> 10 µM	c1ccc(C2CCS/C(=N/c3cccc(CCNc4nc5ccccc5s4)c3)N2)cc1 (stereo not shown) [Example 71]
> 10 µM	c1ccc(CN2CCS/C2=N\c2ccc(CCNc3nc4ccccc4s3)cc2)cc1 [Example 74]
> 10 µM	CC1(C)CS/C(=N\c2ccc(CCNc3nc4ccc([N+](=O)[O-])cc4s3)cc2)N1 [Example 76]
> 10 µM	COc1ccc2nc(NCCc3ccc(/N=C4\SC5Cc6ccccc6[C@@H]5N4C)cc3)sc2c1 (stereo partly shown) [Example 77]
> 10 µM	COc1ccc2nc(NCCc3ccc(/N=C4\SC5CCC[C@H]5N4C)cc3)sc2c1 (stereo partly shown) [Example 78]
> 10 µM	COc1ccc2nc(NCCc3ccc(/N=C4\SC5Cc6ccccc6[C@@H]5N4C4CC4)cc3)sc2c1 (stereo partly shown) [Example 79]
> 10 µM	COc1ccc2nc(NCCc3ccc(/N=C4\SCCN4C)cc3)sc2c1 [Example 80]
1 to 10 µM	COc1ccc2nc(NCCc3ccc(/N=C4/N[C@@H](Cc5ccccc5)CS4)cc3)sc2c1 [Example 81]
< 1 µM	COc1ccc2nc(NCCc3ccc(/N=C4/N[C@H](CC(C)C)CS4)cc3)sc2c1 [Example 82]
> 10 µM	COc1ccc2nc(NCCc3ccc(/N=C4\SC[C@@H]5CCCN45)cc3)sc2c1 [Example 83]
< 1 µM	CCC1CS/C(=N\c2ccc(CCNc3nc4ccc(OC)cc4s3)cc2)N1 (stereo not shown) [Example 84]
> 10 µM	COc1ccc2nc(NCCc3ccc(/N=C4/NCC(c5ccccc5)S4)cc3)sc2c1 (stereo not shown) [Example 85]
1 to 10 µM	Cc1ccc2nc(NCCc3ccc(/N=C4/N[C@@H](Cc5ccccc5)CS4)cc3)sc2c1 [Example 87]
> 10 µM	Cc1ccc2nc(NCCc3ccc(/N=C4/NCC(c5ccccc5)S4)cc3)sc2c1 (stereo not shown) [Example 90]
< 1 µM	CCCC1CS/C(=N\c2ccc(CCNc3nc4ccc(C)cc4s3)cc2)N1 (stereo not shown) [Example 91]
1 to 10 µM	Cc1ccc2nc(NCCc3ccc(/N=C4/N[C@@H](C(C)C)CS4)cc3)sc2c1 [Example 93]

Same assay, conditions: Table 1, rated A/B/C

Structure (SMILES)	Ki
Clc1ccc(C2CCSC(Nc3ccc(CCNc4nc5ccccc5s4)cc3)=N2)cc1 (stereo not shown) [Example 2]	< 1 µM
Clc1cccc(C2CCSC(Nc3ccc(CCNc4nc5ccccc5s4)cc3)=N2)c1 (stereo not shown) [Example 4]	< 1 µM
Brc1ccc(C2CCSC(Nc3ccc(CCNc4nc5ccccc5s4)cc3)=N2)cc1 (stereo not shown) [Example 5]	< 1 µM
c1ccc(C2CCCC(Nc3ccc(CCNc4nc5ccccc5s4)cc3)=N2)cc1 (stereo not shown) [Example 6]	< 1 µM
c1ccc2sc(NCCc3ccc(NC4=NC(C5CCCCC5)CCS4)cc3)nc2c1 (stereo not shown) [Example 9]	< 1 µM
CC(C)C1CCSC(Nc2ccc(CCNc3nc4ccccc4s3)cc2)=N1 (stereo not shown) [Example 10]	< 1 µM
CC1CCSC(Nc2ccc(CCNc3nc4ccccc4s3)cc2)=N1 (stereo not shown) [Example 11]	< 1 µM
CC(C)CC1CCSC(Nc2ccc(CCNc3nc4ccccc4s3)cc2)=N1 (stereo not shown) [Example 12]	< 1 µM
c1ccc(CCC2CCSC(Nc3ccc(CCNc4nc5ccccc5s4)cc3)=N2)cc1 (stereo not shown) [Example 13]	< 1 µM

Next, values leading:

Ki	Structure (SMILES)
< 1 µM	COc1ccc(C2CCSC(Nc3ccc(CCNc4nc5ccccc5s4)cc3)=N2)cc1 (stereo not shown) [Example 3]
< 1 µM	c1ccc([C@@H]2CSC(Nc3ccc(CCNc4nc5ccccc5s4)cc3)=N2)cc1 [Example 7]
1 to 10 µM	c1ccc([C@H]2CSC(Nc3ccc(CCNc4nc5ccccc5s4)cc3)=N2)cc1 [Example 8]
